These results are taken from patent US6306854A, “Chemical compounds” (Glaxosmithkline, priority 1998, dated 2001).

One assay has as its system hPPAR alpha. The assay can be described thus: Binding Assay (displacement of Radioligand from GST-hPPAR alpha). More on the design: species or system human. The settings on record: 60 nM Radioligand. The text has this: Bound radioactivity eluted in the column void volume and was quantitated by liquid scintillation counting.
The test system of assay [1] is PPAR alpha over PPAR gamma. The assay can be described thus: Transfection assay, selectivity for PPAR alpha over PPAR gamma (GAL4-hPPAR alpha and GAL4-hPPAR gamma). The format is cell-based, human. The settings on record: CV-1 cells. The protocol: Plasmids: GAL4-hPPAR alpha chimera and UAS-tk-SPAP reporters.
Transfection assay: SPAP reporter. CV-1 cells were plated in DME medium supplemented with 10% delipidated fetal calf serum at a density of 2.4×10^4 cells per well in a 96-well plate (Costar) 16-24 h before transfection. In general, 8.0 ng of reporter plasmid, 25.0 ng of β-galactosidase expression vector (pCH 110, Pharamacia), and 2.0 ng of GAL4-hPPAR alpha or GAL4-hPPAR gamma expression vector were mixed with carrier DNA (pBluescript, Stratagene) to a total of 80 ng of DNA per well in a volume of […] optiMEM I medium (Life Technologies). To this, a second mix, containing […] optiMEM I medium and […] of LIPOFECTAMINE™ (Life Technologies), was added. After 30 min. an additional […] of optiMEM I medium were added and the combined mix was then applied to the cells. […] Alternatively, alkaline phosphatse and β-galactosidase activities were measured separately using standard protocols. Briefly, cells were lysed by adding […] 0.5% Triton X-100 to the supernatant.

A further assay deals with Zucker lean male rats. The assay is described as follows: Diet-Induced Model of Dyslipidemia, Zucker lean male rats. The format is in vivo, rat. The settings on record: males; for NEFA: before drug 0.72. The text has this:
(§1) Zucker lean male rats and Zucker fa/fa female rats were randomized into 3 treatment groups. The randomization was based on serum triglyceride concentration after three months on the TEKLAD high fat diet. Dosing with Example 5 or the appropriate vehicle, by oral gavage, began after 4 months of high fat feeding. Plasma glucose, lactate, serum insulin and lipid concentrations were obtained weekly, beginning on day 7 through 48 after the initiation of therapy. Metabolic data from each treatment group was collected weekly. Dexascan determinations of body mass composition obtained after 4 months on the high fat diet served as baseline. Changes in body mass composition due to therapy were determined by repeat measurements at the end of the study.
(§2) Treatment Group B Example 5 (0.1 mg/kg) dosed twice a day.
(§3) Treatment Group C Example 5 (0.3 mg/kg) dosed twice a day.

The next assay deals with Zucker fa/fa female rats. The assay is described as follows: Diet-Induced Model of Dyslipidemia, Zucker fa/fa female rats. The format is in vivo, rat. The settings on record: females.
Text: as §1, §2, §3

`CCCCCCCN(CCc1ccc(OC(C)(CC)C(=O)O)cc1)C(=O)Nc1ccc(F)cc1F` (centres unmarked) [Cold Radioligand, 2-(4-(2-(1-Heptyl-3-(2,4-difluorophenyl)ureido)ethyl)phenoxy)-2-methylbutanoic Acid]: in the assay on hPPAR alpha (10 μM competitor, 4° C., 2-3 hr, mean of triplicate, no competitor 140000), the “Bound radioactivity in presence of competitor” value is 25000 dpm.

Take `CC(C)(Sc1ccc(CCN(CCCCC2CCCCC2)C(=O)NC2CCCCC2)cc1)C(=O)O` [Example 1, 2-(4-(2-(1-(Cyclohexanebutyl)-3-cyclohexylureido)ethyl)phenylthio)-2-methylpropionic Acid]: the “activity ratio, PPAR alpha over PPAR gamma” value (shortened to “activity ratio, PPAR alpha”) in assay [1] is recorded as “greater than 100”.

With `CC(C)(Sc1ccc(CCN(CCc2ccc(-c3ccccc3)cc2)C(=O)NC2CCCCC2)cc1)C(=O)O` [Example 2, 2-(4-(2-(1-(4-Biphenylethyl)-3-cyclohexylureido)ethyl)phenylthio)-2-methylpropionic Acid], in assay [1], the “activity ratio, PPAR alpha” value is recorded as “greater than 100”.

Regarding `CC(C)(Sc1ccc(CCN(Cc2ccc(-c3ccccc3C(F)(F)F)cc2Cl)C(=O)NC2CCCCC2)cc1)C(=O)O` [Example 3, 2-(4-(2-(1-(2-Chloro-4-(2-trifluoromethylphenyl)phenylmethyl)-3-(cyclohexyl)ureido)ethyl)phenylthio)-2-methylpropionic Acid], in assay [1], the “activity ratio, PPAR alpha” value was “greater than 100”.

Turning to `CCCCCCCN(CCc1ccc(SC(C)(C)C(=O)O)cc1)C(=O)Nc1ccc(F)cc1F` [Example 5, 2-(4-(2-(1-Heptyl-3-(2,4-difluorophenyl)ureido)ethyl)phenylthio)-2-methylpropionic Acid], the NEFA came to 0.73 m Eq/L in the assay on Zucker lean male rats (0.1 mg/kg oral gavage twice a day, Week 1, vehicle 0.85); 0.57 m Eq/L in the assay on Zucker lean male rats (0.1 mg/kg oral gavage twice a day, Week 4, vehicle 0.65); 0.58 m Eq/L with Zucker lean male rats (0.1 mg/kg oral gavage twice a day, Week 7, vehicle 0.60); 0.69 m Eq/L in the assay with Zucker lean male rats (0.3 mg/kg oral gavage twice a day, Week 1, vehicle 0.85); 0.47 m Eq/L in the assay on Zucker lean male rats (0.3 mg/kg oral gavage twice a day, Week 4, vehicle 0.65); 0.46 m Eq/L in the assay on Zucker lean male rats (0.3 mg/kg oral gavage twice a day, Week 7, vehicle 0.60). In addition, the NEFA in the assay with Zucker fa/fa female rats (0.1 mg/kg oral gavage twice a day, Week 1, before drug 11.15, vehicle 6.78) stood at 2.47 m Eq/L; with Zucker fa/fa female rats (0.1 mg/kg oral gavage twice a day, Week 4, before drug 11.15, vehicle 2.79), 1.32 m Eq/L; in the assay with Zucker fa/fa female rats (0.1 mg/kg oral gavage twice a day, Week 7, before drug 11.15, vehicle 3.77) it was 1.75 m Eq/L; with Zucker fa/fa female rats (0.3 mg/kg oral gavage twice a day, Week 1, before drug 13.06, vehicle 6.78), 1.45 m Eq/L; with Zucker fa/fa female rats (0.3 mg/kg oral gavage twice a day, Week 4, before drug 13.06, vehicle 2.79), 0.59 m Eq/L; in the assay on Zucker fa/fa female rats (0.3 mg/kg oral gavage twice a day, Week 7, before drug 13.06, vehicle 3.77) it was 0.53 m Eq/L. Besides, the Cholesterol is 138 mg/dL in the assay with Zucker lean male rats (0.1 mg/kg oral gavage twice a day, Week 1, before drug 221, vehicle 191); 189 mg/dL with Zucker lean male rats (0.1 mg/kg oral gavage twice a day, Week 4, before drug 221, vehicle 224); 148 mg/dL in the assay on Zucker lean male rats (0.1 mg/kg oral gavage twice a day, Week 7, before drug 221, vehicle 215); 138 mg/dL in the assay with Zucker lean male rats (0.3 mg/kg oral gavage twice a day, Week 1, before drug 235, vehicle 191); 174 mg/dL with Zucker lean male rats (0.3 mg/kg oral gavage twice a day, Week 4, before drug 235, vehicle 224); 151 mg/dL with Zucker lean male rats (0.3 mg/kg oral gavage twice a day, Week 7, before drug 235, vehicle 215). In addition, the Cholesterol with Zucker fa/fa female rats (0.1 mg/kg oral gavage twice a day, Week 1, before drug 1648, vehicle 1186) was 610 mg/dL; in the assay on Zucker fa/fa female rats (0.1 mg/kg oral gavage twice a day, Week 4, before drug 1648, vehicle 1319) it was 733 mg/dL; in the assay on Zucker fa/fa female rats (0.1 mg/kg oral gavage twice a day, Week 7, before drug 1648, vehicle 923), 632 mg/dL; with Zucker fa/fa female rats (0.3 mg/kg oral gavage twice a day, Week 1, before drug 1908, vehicle 1186) it was 350 mg/dL; in the assay on Zucker fa/fa female rats (0.3 mg/kg oral gavage twice a day, Week 4, before drug 1908, vehicle 1319), 404 mg/dL; in the assay with Zucker fa/fa female rats (0.3 mg/kg oral gavage twice a day, Week 7, before drug 1908, vehicle 923), 422 mg/dL. Moreover, the “Body Weight” value with Zucker lean male rats (0.1 mg/kg oral gavage twice a day, Week 1, before drug 636, vehicle 610) was found to be 617 g; in the assay with Zucker lean male rats (0.1 mg/kg oral gavage twice a day, Week 4, before drug 636, vehicle 610), 592 g; in the assay on Zucker lean male rats (0.1 mg/kg oral gavage twice a day, Week 7, before drug 636, vehicle 632), 597 g; in the assay on Zucker lean male rats (0.3 mg/kg oral gavage twice a day, Week 1, before drug 639, vehicle 610) it was 608 g; in the assay on Zucker lean male rats (0.3 mg/kg oral gavage twice a day, Week 4, before drug 639, vehicle 610), 577 g; in the assay on Zucker lean male rats (0.3 mg/kg oral gavage twice a day, Week 7, before drug 639, vehicle 632) it was 565 g. Also, the “Body Weight” value in the assay on Zucker fa/fa female rats (0.1 mg/kg oral gavage twice a day, Week 1, before drug 665, vehicle 684) was determined as 721 g; in the assay on Zucker fa/fa female rats (0.1 mg/kg oral gavage twice a day, Week 4, before drug 665, vehicle 700), 723 g; in the assay on Zucker fa/fa female rats (0.1 mg/kg oral gavage twice a day, Week 7, before drug 665, vehicle 706) it was 710 g; in the assay on Zucker fa/fa female rats (0.3 mg/kg oral gavage twice a day, Week 1, before drug 645, vehicle 684), 673 g; with Zucker fa/fa female rats (0.3 mg/kg oral gavage twice a day, Week 4, before drug 645, vehicle 700), 643 g; with Zucker fa/fa female rats (0.3 mg/kg oral gavage twice a day, Week 7, before drug 645, vehicle 706), 582 g. For the same compound, the Triglycerides in the assay with Zucker lean male rats (0.1 mg/kg oral gavage twice a day, Week 1, before drug (after 4 months on high-fat diet) 828, vehicle 718) stood at 460 mg/dL; in the assay on Zucker lean male rats (0.1 mg/kg oral gavage twice a day, Week 4, before drug 828, vehicle 741), 467 mg/dL; in the assay on Zucker lean male rats (0.1 mg/kg oral gavage twice a day, Week 7, before drug 828, vehicle 725), 584 mg/dL; in the assay on Zucker lean male rats (0.3 mg/kg oral gavage twice a day, Week 1, before drug 926, vehicle 718), 527 mg/dL; with Zucker lean male rats (0.3 mg/kg oral gavage twice a day, Week 4, before drug 926, vehicle 741), 174 mg/dL; with Zucker lean male rats (0.3 mg/kg oral gavage twice a day, Week 7, before drug 926, vehicle 725), 219 mg/dL. Further, the Triglycerides came to 2717 mg/dL in the assay with Zucker fa/fa female rats (0.1 mg/kg oral gavage twice a day, Week 1, before drug (after 4 months on high-fat diet) 9310, vehicle 5357); 3913 mg/dL in the assay on Zucker fa/fa female rats (0.1 mg/kg oral gavage twice a day, Week 4, before drug 9310, vehicle 10414); 2627 mg/dL in the assay with Zucker fa/fa female rats (0.1 mg/kg oral gavage twice a day, Week 7, before drug 9310, vehicle 5465); 1627 mg/dL with Zucker fa/fa female rats (0.3 mg/kg oral gavage twice a day, Week 1, before drug 9190, vehicle 5357); 687 mg/dL with Zucker fa/fa female rats (0.3 mg/kg oral gavage twice a day, Week 4, before drug 9190, vehicle 10414); 538 mg/dL with Zucker fa/fa female rats (0.3 mg/kg oral gavage twice a day, Week 7, before drug 9190, vehicle 5465).

Consider `[3H]C(CCCC)C([3H])CN(CCc1ccc(OC(C)(CC)C(=O)O)cc1)C(=O)Nc1ccc(F)cc1F` (centres unmarked) [Radioligand, 2-(4-(2-(2,3-Ditritio-1-heptyl-3-(2,4-difluorophenyl)ureido)ethyl)phenoxy)-2-methylbutanoic Acid], for which, in the assay on hPPAR alpha (no competitor minus 10 μM Cold Radioligand), the “Specific Binding” value is 115000 dpm.
